# Reference: US20060251705A1 (Wyeth, priority 2005, published 2006)
# Assays:
# Type in all cases: physicochemical
# [1] = Simulated Y-site compatibility: subvisible particulates by light obscuration (HIAC, USP 788); settings: for Subvisible Particulates (HIAC) ≧10 μm / Subvisible Particulates (HIAC) ≧25 μm: each before mixing, 0 hours; for HIAC ≧10 μm / HIAC ≧25 μm: each solution before mixing, 0 Hours
# Excerpt: Sub-visible particulate formation may be measured by light obscuration (HIAC) as per United States Pharmacopeia USP Chapter 788 Particulate Matter in Injections.
# This time period has become standard when performing these “simulated Y-site” studies, although the actual residence time for the two solutions in the administration set may not exceed eight minutes prior to entering the venous system.
# The acceptance criteria of “no incompatibility indicating change” over the four hour evaluation period is being applied to the Appearance and Description assay as well as the HIAC subvisible particulate assay. Thus, for instance, formation of visible particulates or increase of subvisible particulates would indicate an incompatibility and would result in a “Y-site incompatible” classification for that diluent or drug. In addition to the Appearance and Description and HIAC testing, the pH of the solutions are monitored “for information only.” Before mixing of the two test solutions together; Appearance and Description, HIAC subvisible particulate testing, and pH are determined on each as controls.
# (§1) Testing of Controls • 1. […] The remaining volumes of the two test articles are used immediately.
# (§2) Preparation and Testing of Combined Solutions • 1. […] Approximately 30 ml of the combined solution is immediately removed for 0 hour Appearance and Description, subvisible particulates by HIAC and pH testing. The beaker with the remaining solution is then recovered with Parafilm and the headspace flushed with nitrogen. • 2. The sampling and testing of 30 ml aliquots is repeated after one and four hours.
# The following tests are performed immediately after sampling: • 1. Appearance and Description for color, visible particulates, and turbidity measured using a Black and White background light box with a fluorescent lamp capable of producing intensity of illumination between 2000 and 3750 lux. • 2. Sub visible particulates are measured by light obscuration (HIAC) as per United States Pharmacopeia USP Chapter 788 Particulate Matter in Injections.
# (§3) All drug products are prepared per package insert directions; some drugs having wide therapeutic ranges are tested at multiple concentrations, and some drugs with different formulations are tested. A simulation of the mixing which would occur at an intravenous administration set Y-site is used, and the period for evaluation of compatibility exaggerated the generally short time that the two agents would be together prior to venous circulation. Test solutions before and after mixing are measured by visual observation, by light obscuration for subvisible particulates (HIAC), and by potentiometry over a four hour period.
# [2] = Simulated Y-site compatibility: pH by potentiometric meter
# Procedure: (§4) The acceptance criteria of “no incompatibility indicating change” over the four hour evaluation period is being applied to the Appearance and Description assay as well as the HIAC subvisible particulate assay. […] In addition to the Appearance and Description and HIAC testing, the pH of the solutions are monitored “for information only.” Before mixing of the two test solutions together; Appearance and Description, HIAC subvisible particulate testing, and pH are determined on each as controls.
# as §1, §2
# pH is measured using a potentiometric meter capable of measuring pH values reproducibly within 0.02 pH units and having electrodes suitable for pH meter use.
# as §3
# [3] = Compatibility classification of intravenous diluents and drugs under simulated Y-site conditions with Tigecycline for Injection; settings: Dobutamine final concentration 1.0 mg/ml, mixed with Tigecycline for Injection, four hour period
# Procedure: as §3
# [4] = Compatibility of tigecycline with heparin (simulated Y-site study, overall finding); settings: common point of administration, e.g. Y-site, without saline flush
# Procedure: A study is performed to determine the compatibility of tigecycline solutions with heparin. Heparin is prepared for this study as per the directions given in the package insert. The compatibility testing is performed using a “simulated Y-site” technique developed and published by Trissel et. al. “Compatibility of Fenoldopam Mesylate with other Drugs during Simulated Y-site Administration, Am. J. Health-System Pharmacy, Vol. 60, 80-85, 2003; Trissel, et. al. “Physical Compatibility of Antithymocyte Globulin (Rabbit) with Heparin Sodium and Hydrocortisone Sodium, Vol. 60, 1650-1652, 2003; Trissel et. al. “Compatibility Screening of Bivalirudin during Simulated Y-site Administration with Other Drugs, and Trissel et. al. “Compatibility of piperacillin sodium plus tazobactum with selected drugs during simulated Y-site injection, Am. J. Hosp. Pharm., Vol. 51, 672-678, 1994. […]
# as §4
# [5] = Table 6: Tigecycline and Chlorpromazine solutions
# [6] = Table 4: Tigecycline and Dobutamine solutions
# [7] = Table 4: Tigecycline and Dobutamine solutions, each before mixing, 0 hours
# [8] = Table 5: Tigecycline and Dopamine solutions
# [9] = Table 5: Tigecycline and Dopamine solutions, each before mixing, 0 hours
# [10] = Table 1: Tigecycline 1 mg/mL in NS, Heparin 10 Units/ml in NS
# [11] = Table 2: Tigecycline 1 mg/mL in NS, Heparin 100 Units/ml in NS
Compound,"Subvisible Particulates (HIAC) ≧10 μm [1, 5]","Subvisible Particulates (HIAC) ≧25 μm [1, 5]","pH ([2]; Table 6: Tigecycline and Chlorpromazine solutions, each before mixing, 0 hours)","Subvisible Particulates (HIAC) ≧10 μm [1, 6]","Subvisible Particulates (HIAC) ≧25 μm [1, 6]","pH [2, 7]",Compatibility Classification [3],"Subvisible Particulates (HIAC) ≧10 μm [1, 8]","Subvisible Particulates (HIAC) ≧25 μm [1, 8]","pH [2, 9]",compatibility with the administration of heparin [4],"HIAC ≧10 μm [1, 10]","HIAC ≧25 μm [1, 10]","HIAC ≧10 μm [1, 11]","HIAC ≧25 μm [1, 11]","pH ([2]; Table 2: Tigecycline 1 mg/mL in NS, Heparin 100 Units/ml in NS, each solution before mixing, 0 Hours)"
"CN(C)CCCN1c2ccccc2Sc2ccc(Cl)cc21 [Chlorpromazine, reference compound]",21.9 particles/ml,2.9 particles/ml,4.61,–,–,–,–,–,–,–,–,–,–,–,–,–
"CC(CCc1ccc(O)cc1)NCCc1ccc(O)c(O)c1 (stereo not drawn) [Dobutamine, reference compound]",–,–,–,5.9 particles/ml,0.6 particles/ml,4.18,Compatible,–,–,–,–,–,–,–,–,–
"NCCc1ccc(O)c(O)c1 [Dopamine, reference compound]",–,–,–,–,–,–,–,3.1 particles/ml,0.1 particles/ml,3.59,–,–,–,–,–,–
"CN(C)c1cc(NC(=O)CNC(C)(C)C)c(O)c2c1C[C@H]1C[C@H]3[C@H](N(C)C)C(O)=C(C(N)=O)C(=O)[C@@]3(O)C(O)=C1C2=O [Tigecycline, (4S,4aS,5aR,12aS)-9-[2-(tert-butylamino)acetamido]-4,7-bis(dimethylamino)-1,4,4a,5,5a,6,11,12a-octahydro-3,10,12,12a-tetrahydroxy-1,11-dioxo-2-naphthacenecarboxamide]",27.4 particles/ml,1.3 particles/ml,–,35.8 particles/ml,0.9 particles/ml,7.81,–,82.3 particles/ml,2.2 particles/ml,7.84,compatible,39.3 particles/mL,1.4 particles/mL,69.1 particles/mL,6.2 particles/mL,7.82
